Reference: ChEMBL document CHEMBL1148517, “A new class of selective, non-basic 5-HT2A receptor antagonists” (Bioorg Med Chem Lett, 2006)

What was measured:
[1] = target: D(2) dopamine receptor (Homo sapiens, UniProt P14416); experiment: Binding affinity to human D2 receptor
[2] = target: T1, 5-hydroxytryptamine receptor 2C (Homo sapiens, UniProt P28335); experiment: Binding affinity to human 5HT2C
T1 sequence (P28335 whole entry): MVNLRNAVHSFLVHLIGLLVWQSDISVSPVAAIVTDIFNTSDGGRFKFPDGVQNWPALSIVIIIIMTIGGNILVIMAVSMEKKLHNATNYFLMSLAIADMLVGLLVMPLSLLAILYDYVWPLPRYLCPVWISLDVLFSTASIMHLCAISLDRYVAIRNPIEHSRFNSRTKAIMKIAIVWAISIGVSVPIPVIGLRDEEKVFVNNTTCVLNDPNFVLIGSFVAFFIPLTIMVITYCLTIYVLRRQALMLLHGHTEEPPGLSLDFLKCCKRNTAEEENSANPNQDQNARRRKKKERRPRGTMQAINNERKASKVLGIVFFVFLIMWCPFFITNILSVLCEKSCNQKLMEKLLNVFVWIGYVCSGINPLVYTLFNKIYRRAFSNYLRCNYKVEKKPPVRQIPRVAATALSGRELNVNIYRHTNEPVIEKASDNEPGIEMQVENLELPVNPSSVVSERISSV

[3] = target: T2, 5-hydroxytryptamine receptor 2A (Homo sapiens, UniProt P28223); experiment: Binding affinity to human 5HT2A
T2 sequence (P28223 whole entry): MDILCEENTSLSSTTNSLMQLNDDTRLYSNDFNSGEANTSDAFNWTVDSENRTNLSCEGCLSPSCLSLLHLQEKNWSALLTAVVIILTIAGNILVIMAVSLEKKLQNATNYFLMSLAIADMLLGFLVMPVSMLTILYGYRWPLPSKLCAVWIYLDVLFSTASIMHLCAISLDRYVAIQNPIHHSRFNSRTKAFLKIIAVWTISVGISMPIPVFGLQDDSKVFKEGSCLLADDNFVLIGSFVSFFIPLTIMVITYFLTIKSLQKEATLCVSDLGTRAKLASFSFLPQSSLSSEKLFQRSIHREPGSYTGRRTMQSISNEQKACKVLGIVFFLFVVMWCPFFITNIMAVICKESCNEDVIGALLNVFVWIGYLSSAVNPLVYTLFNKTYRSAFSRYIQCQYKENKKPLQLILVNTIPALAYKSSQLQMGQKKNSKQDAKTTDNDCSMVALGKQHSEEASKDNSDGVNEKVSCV

[4] = target: Voltage-gated inwardly rectifying potassium channel KCNH2 (Homo sapiens, UniProt Q12809); experiment: Binding affinity to human IKr
Sequence of Voltage-gated inwardly rectifying potassium channel KCNH2 (Q12809 whole entry): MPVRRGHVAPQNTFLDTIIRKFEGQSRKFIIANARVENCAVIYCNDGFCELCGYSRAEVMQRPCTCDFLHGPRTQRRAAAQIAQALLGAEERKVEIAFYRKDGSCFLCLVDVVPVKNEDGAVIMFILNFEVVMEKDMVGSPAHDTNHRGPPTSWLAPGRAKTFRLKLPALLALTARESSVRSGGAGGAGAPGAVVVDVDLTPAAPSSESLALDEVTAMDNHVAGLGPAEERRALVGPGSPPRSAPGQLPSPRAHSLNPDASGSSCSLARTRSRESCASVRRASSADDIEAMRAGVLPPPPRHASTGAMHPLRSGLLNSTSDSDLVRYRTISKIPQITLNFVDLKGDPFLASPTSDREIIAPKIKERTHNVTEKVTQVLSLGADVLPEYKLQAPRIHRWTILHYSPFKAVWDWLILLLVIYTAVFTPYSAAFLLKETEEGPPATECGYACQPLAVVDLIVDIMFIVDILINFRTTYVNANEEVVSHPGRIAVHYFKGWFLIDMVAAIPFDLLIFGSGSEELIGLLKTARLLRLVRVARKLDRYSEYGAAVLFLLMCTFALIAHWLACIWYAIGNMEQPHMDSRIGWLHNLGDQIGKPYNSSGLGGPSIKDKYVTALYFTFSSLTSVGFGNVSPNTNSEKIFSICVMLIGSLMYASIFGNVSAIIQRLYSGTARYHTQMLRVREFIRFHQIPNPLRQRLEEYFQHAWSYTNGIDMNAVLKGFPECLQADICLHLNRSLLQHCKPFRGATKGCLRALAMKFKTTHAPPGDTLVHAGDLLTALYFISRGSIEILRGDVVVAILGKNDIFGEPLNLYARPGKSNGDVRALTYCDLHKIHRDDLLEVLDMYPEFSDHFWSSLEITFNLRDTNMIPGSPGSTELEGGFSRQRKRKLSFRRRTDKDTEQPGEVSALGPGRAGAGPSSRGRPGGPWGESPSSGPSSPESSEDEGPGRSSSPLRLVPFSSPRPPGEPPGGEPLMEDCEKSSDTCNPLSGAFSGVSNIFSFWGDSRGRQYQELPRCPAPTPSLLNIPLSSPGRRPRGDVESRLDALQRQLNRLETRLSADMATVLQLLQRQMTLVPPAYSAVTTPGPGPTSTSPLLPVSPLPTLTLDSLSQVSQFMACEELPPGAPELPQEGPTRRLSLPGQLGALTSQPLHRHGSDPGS

[5] = target: T2, 5-hydroxytryptamine receptor 2A; experiment: Antagonist activity against human 5HT2A transfected in CHO cells by aurora beta lactamase reporter gene assay; type: functional, cell-based

Sequence of D(2) dopamine receptor (P14416 whole entry): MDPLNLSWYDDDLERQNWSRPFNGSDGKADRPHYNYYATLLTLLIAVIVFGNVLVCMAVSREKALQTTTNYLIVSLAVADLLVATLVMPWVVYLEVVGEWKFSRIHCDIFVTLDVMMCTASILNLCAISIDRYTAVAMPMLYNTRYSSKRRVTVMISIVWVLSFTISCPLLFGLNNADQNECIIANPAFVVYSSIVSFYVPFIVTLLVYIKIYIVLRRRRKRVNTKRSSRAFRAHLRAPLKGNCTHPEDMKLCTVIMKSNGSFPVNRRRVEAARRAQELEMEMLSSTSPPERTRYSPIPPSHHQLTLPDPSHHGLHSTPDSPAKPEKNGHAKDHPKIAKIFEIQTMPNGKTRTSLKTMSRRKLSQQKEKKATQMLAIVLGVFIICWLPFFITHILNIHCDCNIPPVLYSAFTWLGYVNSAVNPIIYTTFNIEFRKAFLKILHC

Row | Ki [1] [µM] | Ki [2] [µM] | Ki [3] [µM] | IC50 [5] [µM] | Structure (SMILES) | Ki [4] [µM]
1 | > 1 | 0.07 | 0.0081 |  | N#Cc1ccccc1S(=O)(=O)N1CCC(CCc2ccc(F)cc2F)CC1 | > 9
2 | > 1 | 0.096 | 0.0017 |  | O=S(=O)(c1cccc2ccccc12)N1CCC(CCc2ccc(F)cc2F)CC1 | > 9
3 | > 1 | 0.806 | 0.024 |  | O=S(=O)(c1ccc(F)cc1)N1CCC(F)(CCc2ccc(F)cc2F)CC1 | > 9
4 | > 1 | 0.028 | 0.0029 |  | O=C(c1cccc2cccnc12)N1CCC(CCc2ccc(F)cc2F)CC1 | > 9
5 | > 1 | 0.557 | 0.00087 |  | N#Cc1c[nH]c2c(C(=O)N3CCN(CCc4ccc(F)cc4F)CC3)cccc12 | 1.27
6 | > 1 | 3.78 | 0.0044 |  | O=S(=O)(c1ccc(F)cc1)N1CCN(CCc2ccc(F)cc2F)CC1 | 4.87
7 | > 1 | 0.239 | 0.0099 |  | O=S(=O)(c1ccccc1F)N1CCC(CCc2ccc(F)cc2F)CC1 | > 9
8 | > 1 | 0.11 |  |  | O=C(c1ccccc1F)N1CCC(CCc2ccc(F)cc2F)CC1 | > 9
9 | > 1 | 0.404 | 0.0061 |  | O=S(=O)(c1ccccc1Cl)N1CCC(CCc2ccc(F)cc2F)CC1 | > 9
10 | > 1 | 0.449 | 0.022 |  | O=S(=O)(c1ccc(F)cc1)N1CC=C(CCc2ccc(F)cc2F)CC1 | > 9
11 | > 1 | 2.03 | 0.052 |  | O=S(=O)(c1ccc(F)cc1)N1CCC(CCc2ccc(F)cc2F)CC1 | > 9
12 | > 1 | 0.184 | 0.0021 |  | O=S(=O)(c1cccc2cccnc12)N1CCC(CCc2ccc(F)cc2F)CC1 | > 9
13 | > 1 | > 4 | 0.19 |  | O=S(=O)(c1ccc(F)cc1)N1CCC(O)(CCc2ccc(F)cc2F)CC1 | > 9
14 | > 1 | 0.997 | 0.014 | 0.319 | O=S(=O)(c1cccc(F)c1)N1CCC(CCc2ccc(F)cc2F)CC1 | > 9
